From patent US20250352600A1, “DIETARY SUPPLEMENTS FOR BRAIN HEALTH” (Melaleuca, Inc., priority 2024, published 2025)

Tests used:
Assay type in all cases: in vivo, human
[1] = Low-Caffeine User Clinical Study, Profile of Mood States (POMS) survey; settings: low-caffeine users
Source text: This study included subjective (POMS and product questions) and objective (CNSVS) tests.

[2] = Moderate-Caffeine User Follow-Up, product questions (statement agreement)
Source text: (§1) The study included subjective tests (POMS and product questions) only. […] There were 7 male and 6 female participants with an average age of 39.5 years.

[3] = Moderate-Caffeine User Follow-Up, Profile of Mood States (POMS) survey; design: Fatigue / Vigor / Confusion / TMD / Tension / Esteem-related Affect: scale not given here; settings: moderate-caffeine users; for TMD: total mood disturbance
Source text: as §1

[4] = Moderate-Dose Caffeine Cohort (mean 338 mg/d), n = 12-13
[5] = Statement Agreement, Moderate-Dose Caffeine Cohort (mean 338 mg/d), n = 12-13

Cn1c(=O)c2c(ncn2C)n(C)c1=O [Caffeine, caffeine]
Anger ([1]; n = 30, Post): 0.90 | Confusion ([1]; n = 30, Post): 1.20 | Depression ([1]; n = 30, Post): 0.60 | Esteem-related Affect ([1]; n = 30, Post): 14.63 | Fatigue ([1]; n = 30, Post): 2.77 | Tension ([1]; n = 30, Post): 2.80 | Vigor ([1]; n = 30, Post): 7.27 | Anger ([1]; n = 30, Pre): 1.55 | Confusion ([1]; n = 30, Pre): 2.93 | Depression ([1]; n = 30, Pre): 1.79 | Esteem-related Affect ([1]; n = 30, Pre): 13.59 | Fatigue ([1]; n = 30, Pre): 5.66 | Tension ([1]; n = 30, Pre): 4.48 | Vigor ([1]; n = 30, Pre): 5.69 | TMD ([1]; total mood disturbance, n = 30, Post): −13.63 | I am in a better mood after having taken the product, % Top 2 Box [2, 4]: 42% | I had no trouble recalling [things] after taking the product, % Top 2 Box [2, 4]: 58% | I was better able to focus after taking the product, % Top 2 Box [2, 4]: 58% | I was more alert after taking the product, % Top 2 Box [2, 4]: 58% | The product enhanced my ability to pay attention, % Top 2 Box [2, 4]: 58% | The product improved my energy levels, % Top 2 Box [2, 4]: 67% | I am in a better mood after having taken the product, Scores [2, 5]: 3.33 | I had no trouble recalling [things] after taking the product, Scores [2, 5]: 3.67 | I was better able to focus after taking the product, Scores [2, 5]: 3.25 | I was more alert after taking the product, Scores [2, 5]: 3.67 | The product enhanced my ability to pay attention, Scores [2, 5]: 3.50 | The product improved my energy levels, Scores [2, 5]: 3.75 | performance of treatment arms among those with moderate caffeine intake ([2]; moderate-caffeine users): performed better | Confusion ([3]; n = 12-13, Post): 1.17 ± 2.92 | Depression ([3]; n = 12-13, Post): 1.17 ± 4.04 | Esteem-related Affect ([3]; n = 12-13, Post): 15.92 ± 3.15 | Fatigue ([3]; n = 12-13, Post): 2.25 ± 3.02 | Tension ([3]; n = 12-13, Post): 1.83 ± 3.54 | Fatigue ([3]; n = 12-13, Post, listed as caffeine): did not relieve | Confusion ([3]; n = 12-13, Pre): 2.25 ± 2.38 | Depression ([3]; n = 12-13, Pre): 1.50 ± 3.45 | Esteem-related Affect ([3]; n = 12-13, Pre): 14.42 ± 3.23 | Fatigue ([3]; n = 12-13, Pre): 5.58 ± 4.70 | Tension ([3]; n = 12-13, Pre): 3.00 ± 2.73 | Vigor ([3]; n = 12-13, Pre): 4.25 ± 2.93 | TMD ([3]; n = 12-13, Post): −17.17 ± 17.69 | TMD ([3]; n = 12-13, Pre): −4.92 ± 13.92
